Source: patent US4364958A, “1-Substituted-3-cycloalkyl-sulfonyl-pyrrolidine-2,5-dione derivatives and fungicidal compositions thereof” (Chinoin Gyogyszer es Vegyeszeti Termekek Gyara Rt., priority 1979, dated 1982)
Converted amounts (≈) assume the structure as drawn. Where two headings read alike, the source gives them in different places.

Key:
Test in all cases: minimal inhibitory concentration in Sabouraud medium
Format in all cases: cell-based
[1] = test system: Sporotrichum schenkii CBS.34035; conditions: Sporotrichum
Description: Sporotrichum schenkii CBS.34035
(§1) As a medium Saboroud medium was employed.

[2] = test system: Epidermophyton floccosum OKI/IV.; conditions: Epidermophyton floccosum
Description: Epidermophyton floccosum OKI/IV.
as §1

[3] = test system: Penicillium digitatum CBS.31948; conditions: Penicillium digitatum
Description: Penicillium digitatum CBS.31948
as §1

[4] = test system: Trichophyton mentagrophytes CBS.50148; conditions: Trichophyton mentagrophytes
Description: Trichophyton mentagrophytes CBS.50148
as §1

[5] = test system: Candida albicans CBS.562; conditions: Candida albicans
Description: Candida albicans CBS.562 "2"
as §1

[6] = test system: Trichophyton rubrum CBS.30338; conditions: Trichophyton rubrum
Description: Trichophyton rubrum CBS.30338
as §1

[7] = test system: Saccharomyces cerevisiae OKI.1282; conditions: Saccharomyces cerevisiae
Description: Saccharomyces cerevisiae OKI.1282
as §1

[8] = test system: Aspergillus niger CBS.12648; conditions: Aspergillus niger
Description: Aspergillus niger CBS.12648
as §1

[9] = 72 h, read-out: minimal inhibitory concentration
[10] = 144 h, read-out: minimal inhibitory concentration
[11] = 288 h, read-out: minimal inhibitory concentration
[12] = CBS.50148, 72 h, 72 hours, read-out: minimal inhibitory concentration
[13] = CBS.50148, 144 h, 144 hours, read-out: minimal inhibitory concentration
[14] = CBS.50148, 288 h, 288 hours, read-out: minimal inhibitory concentration

Row | Compound | MIC ([1]; CBS.34035, 72 h, 72 hours) [µg/mL] | MIC ([1]; CBS.34035, 144 h, 144 hours) [µg/mL] | MIC ([1]; CBS.34035, 288 h, 288 hours) [µg/mL] | MIC [2, 9] [µg/mL] | MIC [2, 10] [µg/mL] | MIC [2, 11] [µg/mL] | MIC ([3]; CBS.31948, 72 h, 72 hours) [µg/mL] | MIC ([3]; CBS.31948, 144 h, 144 hours) [µg/mL] | MIC ([3]; CBS.31948, 288 h, 288 hours) [µg/mL] | MIC [4, 12] [µg/mL] | MIC [4, 13] [µg/mL] | MIC [4, 14] [µg/mL] | MIC ([5]; CBS.562, 24 h, 24 hours) [µg/mL] | MIC ([5]; CBS.562, 48 h, 48 hours) [µg/mL] | MIC ([6]; CBS.30338, 72 h, 72 hours) [µg/mL] | MIC ([6]; CBS.30338, 144 h, 144 hours) [µg/mL] | MIC ([6]; CBS.30338, 288 h, 288 hours) [µg/mL] | MIC ([8]; CBS.12648, 72 h, 72 hours) [µg/mL] | MIC ([8]; CBS.12648, 144 h, 144 hours) [µg/mL] | MIC ([8]; CBS.12648, 288 h, 288 hours) [µg/mL] | further results
1 | O=C1CC(S(=O)(=O)C2CCCCC2)C(=O)N1c1cccc([N+](=O)[O-])c1 (stereo not shown) [1-(3-nitrophenyl)-3-cyclohexyl-sulfonyl-pyrrolidine-2,5-dione] | 25 (≈ 68.2 µM) | 75 (≈ 205 µM) | 75 (≈ 205 µM) | 5 (≈ 13.6 µM) | 10 (≈ 27.3 µM) | 10 (≈ 27.3 µM) | 25 (≈ 68.2 µM) | 50 (≈ 136 µM) | 50 (≈ 136 µM) | 2.5 (≈ 6.82 µM) | 5 (≈ 13.6 µM) | 25 (≈ 68.2 µM) | 50 (≈ 136 µM) | 100 (≈ 273 µM) | 5 (≈ 13.6 µM) | 5 (≈ 13.6 µM) | 5 (≈ 13.6 µM) | 75 (≈ 205 µM) | 150 (≈ 409 µM) | 150 (≈ 409 µM) | MIC ([7]; OKI.1282, 24 h, 24 hours): 75 µg/mL (≈ 205 µM); MIC ([7]; OKI.1282, 48 h, 48 hours): 75 µg/mL (≈ 205 µM)
2 | COC(=O)c1ccc(N2C(=O)CC(S(=O)(=O)C3CCCCC3)C2=O)cc1OC(C)=O (stereo not shown) [Example 7, 1-(3-Acetoxy-4-methoxycarbonyl-phenyl)-3-cyclohexyl-sulfonyl-pyrrolidine-2,5-dione] | 50 (≈ 114 µM) | 100 (≈ 229 µM) | 150 (≈ 343 µM) | 10 (≈ 22.9 µM) | 10 (≈ 22.9 µM) | 10 (≈ 22.9 µM) | 50 (≈ 114 µM) | 50 (≈ 114 µM) | 100 (≈ 229 µM) | 2.5 (≈ 5.71 µM) | 2.5 (≈ 5.71 µM) | 2.5 (≈ 5.71 µM) |  |  | 25 (≈ 57.1 µM) | 25 (≈ 57.1 µM) | 50 (≈ 114 µM) | 200 (≈ 457 µM) | 200 (≈ 457 µM) | 200 (≈ 457 µM) | MIC ([2]; read-out: Minimal inhibitory concentration inhibiting the growth): 10 µg/mL (≈ 22.9 µM); MIC ([4]; CBS.50148, read-out: Minimal inhibitory concentration inhibiting the growth): 2.5 µg/mL (≈ 5.71 µM)
3 | COc1ccc(N2C(=O)CC(S(=O)(=O)C3CCCCC3)C2=O)cc1 (stereo not shown) [1-(4-Methoxyphenyl)-3-cyclohexyl-sulfonyl-pyrrolidine-2,5-dione] | 5 (≈ 14.2 µM) | 10 (≈ 28.5 µM) | 10 (≈ 28.5 µM) | 5 (≈ 14.2 µM) | 25 (≈ 71.1 µM) | 75 (≈ 213 µM) | 100 (≈ 285 µM) | 100 (≈ 285 µM) | 150 (≈ 427 µM) | 2.5 (≈ 7.11 µM) | 75 (≈ 213 µM) | 100 (≈ 285 µM) | 50 (≈ 142 µM) | 150 (≈ 427 µM) | 10 (≈ 28.5 µM) | 10 (≈ 28.5 µM) | 10 (≈ 28.5 µM) | 75 (≈ 213 µM) | 100 (≈ 285 µM) | 150 (≈ 427 µM) | MIC ([7]; OKI.1282, 24 h, 24 hours): 25 µg/mL (≈ 71.1 µM); MIC ([7]; OKI.1282, 48 h, 48 hours): 50 µg/mL (≈ 142 µM)

More lines, in order of falling MIC ([1]; CBS.34035, 72 h, 72 hours), values ahead:

Row | MIC ([1]; CBS.34035, 72 h, 72 hours) [µg/mL] | MIC ([1]; CBS.34035, 144 h, 144 hours) [µg/mL] | MIC ([1]; CBS.34035, 288 h, 288 hours) [µg/mL] | MIC [2, 9] [µg/mL] | MIC [2, 10] [µg/mL] | MIC [2, 11] [µg/mL] | MIC ([3]; CBS.31948, 72 h, 72 hours) [µg/mL] | MIC ([3]; CBS.31948, 144 h, 144 hours) [µg/mL] | MIC ([3]; CBS.31948, 288 h, 288 hours) [µg/mL] | MIC [4, 12] [µg/mL] | MIC [4, 13] [µg/mL] | MIC [4, 14] [µg/mL] | MIC ([5]; CBS.562, 24 h, 24 hours) [µg/mL] | MIC ([5]; CBS.562, 48 h, 48 hours) [µg/mL] | MIC ([6]; CBS.30338, 72 h, 72 hours) [µg/mL] | MIC ([6]; CBS.30338, 144 h, 144 hours) [µg/mL] | MIC ([6]; CBS.30338, 288 h, 288 hours) [µg/mL] | MIC ([8]; CBS.12648, 72 h, 72 hours) [µg/mL] | MIC ([8]; CBS.12648, 144 h, 144 hours) [µg/mL] | MIC ([8]; CBS.12648, 288 h, 288 hours) [µg/mL] | Compound | further results
4 | 10 (≈ 27.3 µM) | 50 (≈ 136 µM) | 50 (≈ 136 µM) | 75 (≈ 205 µM) | 100 (≈ 273 µM) | 150 (≈ 409 µM) | 25 (≈ 68.2 µM) | 50 (≈ 136 µM) | 50 (≈ 136 µM) | 75 (≈ 205 µM) | 150 (≈ 409 µM) | 150 (≈ 409 µM) | 75 (≈ 205 µM) | 150 (≈ 409 µM) | 50 (≈ 136 µM) | 50 (≈ 136 µM) | 75 (≈ 205 µM) | 150 (≈ 409 µM) | 200 (≈ 546 µM) | 200 (≈ 546 µM) | O=C1CC(S(=O)(=O)C2CCCCC2)C(=O)N1c1ccccc1[N+](=O)[O-] (stereo not shown) [1-(o-nitrophenyl)-3-cyclohexyl-sulfonyl-pyrrolidine-2,5-dione] | MIC ([7]; OKI.1282, 24 h, 24 hours): 100 µg/mL (≈ 273 µM); MIC ([7]; OKI.1282, 48 h, 48 hours): 200 µg/mL (≈ 546 µM)
5 | 10 (≈ 29.8 µM) | 25 (≈ 74.5 µM) | 50 (≈ 149 µM) | 5 (≈ 14.9 µM) | 10 (≈ 29.8 µM) | 25 (≈ 74.5 µM) | 10 (≈ 29.8 µM) | 25 (≈ 74.5 µM) | 25 (≈ 74.5 µM) | 5 (≈ 14.9 µM) | 25 (≈ 74.5 µM) | 50 (≈ 149 µM) | 50 (≈ 149 µM) | 100 (≈ 298 µM) | 5 (≈ 14.9 µM) | 10 (≈ 29.8 µM) | 25 (≈ 74.5 µM) | 75 (≈ 224 µM) | 100 (≈ 298 µM) | 150 (≈ 447 µM) | Cc1cccc(N2C(=O)CC(S(=O)(=O)C3CCCCC3)C2=O)c1 (stereo not shown) [1-m(tolyl)-3-cyclohexyl-sulfonyl-pyrrolidine-2,5-dione] | MIC ([7]; OKI.1282, 24 h, 24 hours): 25 µg/mL (≈ 74.5 µM); MIC ([7]; OKI.1282, 48 h, 48 hours): 25 µg/mL (≈ 74.5 µM)
6 | 10 (≈ 28.1 µM) | 50 (≈ 141 µM) | 50 (≈ 141 µM) | 2.5 (≈ 7.03 µM) | 5 (≈ 14.1 µM) | 10 (≈ 28.1 µM) | 25 (≈ 70.3 µM) | 50 (≈ 141 µM) | 50 (≈ 141 µM) | 2.5 (≈ 7.03 µM) | 5 (≈ 14.1 µM) | 5 (≈ 14.1 µM) | 50 (≈ 141 µM) | 50 (≈ 141 µM) | 2.5 (≈ 7.03 µM) | 10 (≈ 28.1 µM) | 10 (≈ 28.1 µM) | 50 (≈ 141 µM) | 150 (≈ 422 µM) | 150 (≈ 422 µM) | O=C1CC(S(=O)(=O)C2CCCCC2)C(=O)N1c1ccccc1Cl (stereo not shown) [1-(2-chlorophenyl)-3-cyclohexyl-sulfonyl-pyrrolidine-2,5-dione] | MIC ([7]; OKI.1282, 24 h, 24 hours): 25 µg/mL (≈ 70.3 µM); MIC ([7]; OKI.1282, 48 h, 48 hours): 75 µg/mL (≈ 211 µM)
